pIC50: −log10 of the molar value. Like-named read-outs stand apart in the source and are kept apart here.
Key:
Rat isolated portal vein = test: Rat isolated portal vein: inhibition of spontaneous contractions and of contractions due to added calcium; design: species or system rat (male Sprague Dawley); settings: for pIC50: Rattus norvegicus, 0.25 h, 15 min contact time
Description: (1) Rat isolated portal vein. Male Sprague Dawley rats (250-350 g) were killed by cervical dislocation. Portal veins (2-3 cm in length) were set up under 0.8-1 g tension in a 10 ml organ bath containing Krebs-Henseleit solution, at 37° C., of the following composition (mM): NaCl 118, NaHCO3 25, glucose 5, KH2 PO4 1.18, KCl 4.69, MgSO4 0.59, CaCl2 ·H2 O 1.87. The tissue was aerated with a 95% oxygen and 5% carbon dioxide mixture. Isometric tension was recorded using a Devices strain gauge and recorder. Each preparation was allowed 1h to equilibrate before the addition of test compound. The ability of a compound to inhibit the contractions due to added calcium (3 mM CaCl2) was determined in tissues bathed in Krebs-Henseleit solution containing 0.05 mM CaCl2 (in order to reduce spontaneous contractions). Then percentage inhibition (mean±s.e.m.; 6-9 tissues) of the amplitude of the spontaneous contractions, and contractions due to added calcium, was determined after 15 min contact time with test compound.
IC50 is concentration of compound reducing contractions by 50%; parenthesis indicate 95% fiducial limits.

hypoxic skeletal muscle = test: Effect of compounds on skeletal muscle oxygen tension in the rat (with reduction in mean arterial blood pressure); assay type: in vivo; settings: for CHANGE IN PO2 (average change in muscle PO2 produced by treatment) / REDUCTION IN MABP (Mean Arterial Blood Pressure): mean±S.D., 6 rats/treatment; for oxygen tension (PO2) in hypoxic skeletal muscle: at approximately a hypotensive dose
Description: Values are mean±S.D.; 6 rats/treatment
MABP=Mean Arterial Blood Pressure
Change in PO2 =the average change in muscle PO2 produced by treatment

[1] = test system: Rabbit isolated mesenteric artery; test: Rabbit isolated mesenteric artery: inhibition of contractions due to 30 and 90 mM KCl; design: species or system rabbit (male New Zealand White)
Description: (2) Rabbit isolated mesenteric artery. Mesenteric arteries (3 mm rings) were removed from male New Zealand White rabbits and mounted, at a resting tension of 1.5-2.0 g, in a 10 ml organ bath containing a Ringer solution, at 37° C., of the following composition (mM): NaCl 120.8; KCl 5.9; CaCl2 2.5; MgCl2 1.2; HEPES 5.8; glucose 11.5. The bathing solution was bubbled with a 95% oxygen and 5% carbon dioxide mixture. Each preparation was allowed 1-11/2 h to equilibrate before the addition of either 30 or 90 mM KCl to contract the tissue. The ability of test compound to relax the sustained contraction due to KCl was determined by assessing the % reduction (mean±s.e.m.; 4-9 tissues) produced by varying concentrations of test compound.
IC50 is the concentration of compound 1 halving the contraction due to KCl; parenthesis indicate 95% fiducial limits.

| Structure (SMILES) | pIC50 (Rat isolated portal vein; contractions due to added calcium (3 mM CaCl2), 0.05 mM CaCl2 Krebs-Henseleit, 95% fiducial limits (0.87-3.5), read-out: IC50 Ca^2+ (3 mM) (concentration reducing contractions by 50%)) | pIC50 (Rat isolated portal vein; spontaneous contractions, 95% fiducial limits (0.67-7.8), read-out: IC50 Spontaneous (concentration reducing contractions by 50%)) | inhibitor of spontaneous contractions and of those due to added calcium (comparison in words) (Rat isolated portal vein; spontaneous versus added calcium contractions) | CHANGE IN PO2 (average change in muscle PO2 produced by treatment) (hypoxic skeletal muscle; 0.3 mg/kg intraduodenally) | REDUCTION IN MABP (Mean Arterial Blood Pressure) (hypoxic skeletal muscle; 0.3 mg/kg intraduodenally) | oxygen tension (PO2) in hypoxic skeletal muscle (hypoxic skeletal muscle) | antagonism of contractions due to a partially / fully depolarising concentration of potassium ([1]; 30 mM (partially) and 90 mM (fully depolarising) KCl) | pIC50 ([1]; Oryctolagus cuniculus, read-out: IC50 90 mM KCl (concentration halving the contraction due to KCl)) | effect against a high concentration of KCl ([1]; high KCl (90 mM)) | CHANGE IN PO2 (average change in muscle PO2 produced by treatment) (hypoxic skeletal muscle; 1.0 mg/kg intraduodenally) | REDUCTION IN MABP (Mean Arterial Blood Pressure) (hypoxic skeletal muscle; 1.0 mg/kg intraduodenally) |
| --- | --- | --- | --- | --- | --- | --- | --- | --- | --- | --- | --- |
| CC1(C)Oc2ccc(C#N)cc2[C@@H](N2CCCC2=O)[C@@H]1O (relative stereo) [Compound 1, 6-cyano-3,4-dihydro-2,2-dimethyl-trans-4-(2-oxo-1-pyrrolidinyl)-2H-benzo[b]pyran-3-ol] | 6.82 | 6.92 | equipotent | +8.7 ± 2.3 TORR | 44 ± 4 MMHG | large increase | antagonises the contractions due to a partially, but not a fully, depolarising concentration of potassium | < 5.00 | effectiveness |  |  |
| CCN(C(C)=O)[C@@H]1c2cc(C#N)ccc2OC(C)(C)[C@H]1O (relative stereo) [Compound 2, trans-4-N-acetylethylamino-6-cyano-3,4-dihydro-2,2-dimethyl-2H-benzo[b]pyran-3-ol] |  |  |  |  |  | large increase |  |  |  | +8.2 ± 3.7 TORR | 36 ± 4 MMHG |
